Columns and labels:
[1] = test system: zymosan-induced PMN leukocyte accumulation; test: Zymosan-induced peritonitis in the mouse (PMN leukocytes in peritoneal lavage fluid); assay type: in vivo; conditions: NMRI mice; 5 hours after i.p. zymosan; pemirolast 0.5 mg i.p. with zymosan; atorvastatin sodium 0.35 mg 24 hours and 90 minutes before
Protocol: The atorvastatin injection was given 24 hours before zymosan was administered i.p. and the atorvastatin injection was given 90 minutes before zymosan was administered […]. Prior to injection, atorvastatin was dissolved at 1 mg/mL in sterile PBS using sonication and warming as needed. […] The number of polymorphonuclear (PMN) leukocytes per mL of lavage fluid was counted by light microscopy (using standard morphological criteria) following staining of nuclei with Tü's solution. Lavage fluid from non-inflamed peritoneal cavities from untreated animals provided baseline levels of PMN leukocytes.

[2] = test system: human macrophage cell-line MonoMac-6 (MM6); test: Inhibition of macrophage proliferation (WST-1 reagent); assay type: cell-based; conditions: 48 hours, n=5; for inhibition at 10 µM / inhibition at 30 µM / inhibition at 100 µM: Homo sapiens; for inhibition at 10 µM: MONO-MAC-6, 10 μM drug alone; for inhibition at 30 µM: MONO-MAC-6, 30 μM drug alone; for inhibition at 100 µM: MONO-MAC-6, 100 μM drug alone
Protocol: Cells from the human macrophage cell-line MonoMac-6 (MM6) (Ziegler-Heitbrock et al, Int. J. Cancer, 41, 456 (1988)) were cultured (37° C./5% CO2) in RPMI-1640 medium supplemented with 1 mM sodium pyruvate, 1× nonessential amino acids, 1-100 μg/mL insulin, 1 mM oxalacetic acid, 100 units/mL penicillin, 100 μg/mL streptomycin and 10% (v/v) fetal bovine serum. At the start of the experiment, MM6 cells were seeded in 96-well plates at a density of 1×10^5 cells/mL (100 μl per well). Proliferation of the MM6 cells was measured using the Cell Proliferation Reagent WST-1 (Roche Diagnostics Scandinavia AB, Bromma, Sweden) or by cell counting using a microscope. The WST-1 reagent is designed to be used for spectrophotometric quantification of e.g. cell growth in proliferation assays and was used according to the manufacturers' instructions. The wavelength for measuring absorbance was 450 nm and the absorbance of all untreated control cells exposed to the WST-1 reagent was between 1.0 and 2.5. Stock solutions of pemirolast (potassium salt; see Example 19 above) and rosuvastatin (sodium salt; see Example 19 above) were made in sterile saline.
Untreated MM6 cells increased from 1×10^5 cells/mL at the start of the experiment to 1.4×10^5±0.06×10^5 cells/mL and 2.3×10^5±0.10×10^5 cells/mL after 24 and 48 hours, respectively (mean values±sem, n=4 for each of the three time-points). The effects of pemirolast and/or rosuvastatin (added at the start of the experiments) on MM6 cell proliferation were studied 48 hours after start of the experiments using the WST-1 reagent described above.
The procedure described in Example 20 was repeated for atorvastatin (sodium salt; received as atorvastatin calcium as a gift from Biocon, Ltd., Bangalore, India and converted into sodium salt by firstly converting the calcium salt into the free acid by addition of aqueous hydrochloric acid and then, after isolation via extraction, adding one equivalent of aqueous NaOH).

[3] = test system: bone marrow-derived cultured mouse mast cells (mMC); test: Inhibition of mast cell interferon-γ formation (IgE-receptor cross-linking with TNP-BSA, Cytometric Bead Array); assay type: cell-based; conditions: for mean IFN-γ concentration in supernatants: mMC stimulated with TNP-BSA for 24 hours, n=2
Protocol: Bone marrow-derived cultured mouse mast cells (mMC) were obtained by culturing bone marrow cells from female C57BL/6 mice. The bone marrow cells (from mouse femurs flushed with PBS) were cultured (37° C./5% CO2) in 10% X-63 enriched conditioned RPMI 1640, supplemented with 10% heat-inactivated fetal bovine serum, 4 mM L-glutamine, 50 μM 2-mercaptoethanol, 1 mM sodium pyruvate, 0.1 mM non-essential amino acids, 10 mM Hepes, 100 units/mL penicillin and 100 μg/mL streptomycin. Development of mast cells was confirmed by toluidine blue staining. The experiments were performed after 6 to 8 weeks of culture. To activate the mMC through cross-linking of cell-surface IgE-receptors, the cultured mMC were initially sensitized for 90 minutes at 37° C. (5% CO2) with a monoclonal mouse anti-TNP IgE-antibody (IgE1-b4, ATCC, Rockville, Md., USA), used as a 15% hybridoma supernatant. Cells were then subjected to two washings with PBS and re-suspended in RPMI-1640 medium supplemented with 0.2% bovine serum albumin (BSA) before the cells (0.5 mL of medium with 1×10^6 cells per mL) were activated by addition of TNP-BSA (Biosearch Technologies, San Francisco, Calif.) with a coupling ratio of 9/1 (the final TNP-BSA concentration was 100 ng/mL). The incubation (37° C./5% CO2) with TNP-BSA was 24 hours. Before the incubation with TNP-BSA, some cells were treated/incubated (37° C./5% CO2) with the test drugs pemirolast (potassium salt purchased from American Custom Chemicals Corporation, San Diego, Calif., USA) and/or rosuvastatin (extracted and purified from commercially available Crestor® tablets and isolated as calcium salt as described in Bioorganic & Medicinal Chemistry, Vol. 5, No. 5, pp 437-444, 1997 by adding CaCl2) 30 minutes prior to addition of TNP-BSA (stock solutions of the drugs were made in sterile saline). For comparison, some experiments were performed without the drug treatments. After the incubations with TNP-BSA, the samples were centrifuged at 4° C. to spin down the cells and the supernatants analysed with regard to content of mouse IFN-γ using the BD™ Cytometric Bead Array (CBA) Mouse Inflammation Kit from BD Biosciences Pharmingen, San Diego, USA (the kit was used according to the manufacturer's instructions).

Structure (SMILES): CC(C)c1c(C(=O)Nc2ccccc2)c(-c2ccccc2)c(-c2ccc(F)cc2)n1CC[C@@H](O)C[C@@H](O)CC(=O)O [atorvastatin]
- reduction of zymosan-induced PMN leukocyte accumulation compared with untreated animals [1]: 25.9%
- inhibition at 10 µM [2]: 19.9%
- inhibition at 30 µM [2]: 27%
- inhibition at 100 µM [2]: 54.4%

Structure (SMILES): Cc1cccn2c(=O)c(-c3nnn[nH]3)cnc12 [pemirolast]
- reduction of zymosan-induced PMN leukocyte accumulation compared with untreated animals [1]: 10.1%
- mean IFN-γ concentration in supernatants ([3]; 3 μM drug alone): 2.00 µg/mL
- reduction of IFN-γ compared with the untreated cells ([3]; 30 μM drug alone, TNP-BSA 24 hours): about 3%
- mean IFN-γ concentration in supernatants ([3]; 30 μM drug alone): 1.74 µg/mL
- inhibition of MM6 proliferation ([2]; 10 μM drug alone): very similar to that of 100 μM of pemirolast
- inhibition at 100 µM [2]: 9.4%

Structure (SMILES): CC(C)c1nc(N(C)S(C)(=O)=O)nc(-c2ccc(F)cc2)c1/C=C/[C@@H](O)C[C@@H](O)CC(=O)O [rosuvastatin]
- mean IFN-γ concentration in supernatants ([3]; 3 μM drug alone): 2.26 µg/mL
- mean IFN-γ concentration in supernatants ([3]; 30 μM drug alone): 1.88 µg/mL
- inhibition at 10 µM [2]: 16.6%
- inhibition at 30 µM [2]: 22.7%
- inhibition at 100 µM [2]: 66.9%

— US20100063070A1, “COMBINATION FOR USE IN THE TREATMENT OF INFLAMMATORY DISORDERS” (priority 2006, published 2010)
